Values joined by “and” are separate entries in the source; they are usually repeats but may differ in a detail not shown here. Equal entries are not always repeated.
How the values were obtained:
[1] = target: T1, DNA-dependent protein kinase (DNA-PK) (Homo sapiens, UniProt P78527); type: cell-based
T1 construct: NK cells were nucleofected on day 4 with the RNP complex and dsDNA, and incubated with M3814 at various concentrations; endogenous in cells; host or cells: primary peripheral-blood NK cells
Experimental: Nucleofection: NK-cells were nucleofected on day 4, unless otherwise described for optimization experiments. Post-nucleofection recovery medium (Complete NK MACS® medium (Miltenyi) with 100 IU/mL IL-2 (Peprotech) and 2 ng/mL IL-15 (Peprotech)+/−0.6 uM M3814 (Selleck Chem)) was prepared, with M3814 added at 1.2× the working concentration to account for future dilution. For M3814 related optimization experiments, multiple aliquots of post-recovery medium were prepared with a corresponding concentration of M3814. 150 μL of M3814 recovery medium was plated into individual wells of a 96-well round bottom plate for each replicate and set aside in the incubator. PB-NK cells were harvested and counted using the Countess® II FL Automated Cell Counter (Thermo Fisher Scientific) with 0.4% Trypan Blue viability stain (Thermo Fisher Scientific). 5e5 cells were aliquoted into individual 1.5 mL Eppendorf Tubes® for each nucleofection replicate. While the RNP complexes incubated, the cells were pelleted at 100 g for 10 minutes, and 3 μg (1.5 μL) of dsDNA templates were aliquoted into PCR tubes for each replicate. Following incubation, the RNP complexes were added to the dsDNA templates and were allowed to incubate for 3-5 minutes at room temperature. Cell pellets were resuspended in P3 buffer with 22% supplement (Lonza), and combined with the RNP+dsDNA mixture, for a total volume of […]. Samples were added to the 24 μL reaction cuvettes (Lonza) and were nucleofected using the EH-100 program (Lonza Amaxa™ 4D-Nucleofector®), unless specified otherwise for optimization experiments. Immediately after nucleofection, 100 μL of pre-warmed recovery medium (no M3814) was added to each of the cuvette wells, and samples were rested at 37° C. for 15 minutes. Finally, samples were transferred from the cuvette to the 96-well plate containing pre-warmed recovery medium with M3814. After 24 hours, nucleofected NK cells were combined with irradiated K562-mb15-41BBL (100 Gy) at a 1:2 ratio in complete NK MACS medium with 100 IU/mL IL-2 and 2 ng/mL IL-15.
NK cells were nucleofected on day 4 with the RNP complex and dsDNA, and incubated with M3814 at various concentrations. Nucleofected cells were expanded for one week and assayed by flow cytometry for NKG2A knock-out and transgene expression.

KLRC1 gene = experiment: Indel formation by NGS after Cas9 RNP nucleofection of NK-92 cells; type: cell-based, human; details: SpCas9 RNP, NGS after two weeks of culture, exon 3
Experimental: On-target editing analysis via Next Generation Sequencing: Genomic DNA was extracted and indel formation was analyzed via next generation sequencing (Illumina) as previously described in the art. Briefly, edited amplicons were amplified and purified using genomic PCR and SPRI cleanup, respectively. A second PCR was performed with indexing primers to attach unique dual identifiers (Illumina®) to the amplicons. After a second SPRI cleanup, samples were combined and run on the Illumina® MiniSeq™ per the manufacturer's instructions and analyzed using the CRISPR RGEN software.
The editing strategy to improve NK potency against solid tumors involves knocking out the NKG2A receptor that can inhibit cytotoxicity within solid tumors (FIG. 1A), while simultaneously conferring specificity of cytotoxicity to a target antigen on the cancer. To knock out the NKG2A receptor, three single-guide RNAs (sgRNAs) were designed against several common coding exons in the KLRC1 gene (FIG. 1B). Ribonucleoproteins (RNPs) were generated upon the complexation of these sgRNAs with SpCas9 to generate double-stranded DNA breaks at these targets within KLRC1. NK-92 cells, a human cell line derived from non-hodgkin lymphoma, were nucleofected with RNPs containing one of these sgRNAs, and assessed for insertions or deletions (indels) around the targeted site after two weeks of cell culture. […]

KLRC1 = details: primary T cells, Bexte et al.; cited from earlier work
NKG2A = details: Huang et al.; cited from earlier work
human genome = experiment: Genome-wide off-target analysis by CHANGE-seq; type: biochemical
Experimental: Off-target analysis via genome wide CHANGE-seq: The Gentra® Puregene® kit (Qiagen, Germantown, MD) was used to extract genomic DNA from unedited primary NK cells per the manufacturer's instructions. Genomic analysis was performed by CHANGE-Seq as described previously in the art. In short, genomic DNA underwent tagmentation with a custom Tn5-transposome, and was gap repaired with HiFi HotStart Uracil+ Ready Mix (Kapa Biosystems, Wilmington, MA). USER enzyme (NEB, Ipswich, MA) and T4 polynucleotide was then used to treat the gap-repaired DNA. DNA circularization was performed using T4 DNA ligase (NEB, Ipswich, MA), followed by treatment with a mixture of exonucleases to remove residual linear DNA. In vitro cleavage reactions were performed on the circularized DNA using SpCas9 protein (NEB, Ipswich, MA) and KLRC1 sgRNA. Cleaved products were incubated with proteinase K (NEB, Ipswich, MA), A-tailed, ligated with a hairpin adapter (NEB, Ipswich, MA), and treated with USER enzyme (NEB, Ipswich, MA). Products were amplified by PCR with the Kapa HiFi polymerase (Kapa Biosystems, Wilmington, MA), and libraries were quantified by qPCR (Kapa Biosystems, Wilmington, MA). Libraries were sequenced with 150 bp paired-end reads on the Illumina NextSeq2000 instrument. CHANGE-seq data analyses were performed as described previously.

cell expansion after nucleofection [1]	improvement of HDR outcomes [1]	percent of NKG2A− cells [1]	percentage of transgene expression [1]	Molecule	indel formation (KLRC1 gene)	indel frequency (KLRC1)	NKG2A knock-out (NKG2A)	indel frequencies (NKG2A)	sites having off-target activity near a transcription start site (TSS) (human genome; CHANGE-seq)	sites having off-target nuclease activity within exons (human genome; CHANGE-seq)	CHANGE-seq specificity ratio (human genome; on-target reads divided by sum of total reads)
did not affect cell expansion	two-fold	around 75%	11.9% and 12.8%	COc1ccc([C@@H](O)c2cc(-c3ncnc4cc(N5CCOCC5)ccc34)c(F)cc2Cl)nn1 [M3814]							
				GGTCTGAGTAGATTACTCCT(TGG) (guide GGUCUGAGUAGAUUACUCCU; listed as RNA, chemistry not given here) [gRNA1]	98%	58-80%	less than 25%	> 80%	8	10	0.038

Source: US20250255958A1, “VIRUS-FREE CRISPR CAR NATURAL KILLER CELLS” (Wisconsin Alumni Research Foundation, priority 2024, published 2025)
